Measurements published in patent US9179674B2, “Macrocyclic picolinamide compounds with fungicidal activity” (DOW AGROSCIENCES LLC, priority 2013, dated 2015).

Key:
Type in all cases: in vivo
Alternaria solani = experiment: Tomato Early Blight fungicidal activity (ALTESO); conditions: 24 h, 1 Day Protectant, read-out: Disease Control ALTESO 1DP
Description: Technical grades of materials were dissolved in acetone, which were then mixed with nine volumes of water containing 110 ppm Triton X-100. The fungicide solutions were applied onto wheat seedlings using an automated booth sprayer to run-off. All sprayed plants were allowed to air dry prior to further handling. All fungicides were evaluated using the aforementioned method for their activity vs. all target diseases. Wheat leaf blotch and brown rust activity were also evaluated using track spray applications, in which case the fungicides were formulated as EC formulations, containing 0.1% Trycol 5941 in the spray solutions. Wheat plants (variety Yuma) were grown from seed in a greenhouse in 50% mineral soil/50% soil-less Metro mix until the first leaf was fully emerged, with 7-10 seedlings per pot. These plants were inoculated with an aqueous spore suspension of Septoria tritici either prior to or after fungicide treatments. After inoculation the plants were kept in 100% relative humidity (one day in a dark dew chamber followed by two to three days in a lighted dew chamber at 20° C.) to permit spores to germinate and infect the leaf. The plants were then transferred to a greenhouse set at 20° C. for disease to develop. When disease symptoms were fully expressed on the 1st leaves of untreated plants, infection levels were assessed on a scale of 0 to 100 percent disease severity. Percent disease control was calculated using the ratio of disease severity on treated plants relative to untreated plants. Evaluation of Fungicidal Activity: Tomato Early Blight (Alternaria solani; Bayer Code […]) Tomato plants (variety Outdoor girl) were propagated in soil-less Metro mix, with each pot having one plant, and used when 12 to 14 days old. Test plants were inoculated with an aqueous spore suspension of Alternaria solani 24 hr after fungicide treatments. After inoculation the plants were kept in 100% relative humidity (one day in a dark dew chamber followed by two to three days in a lighted dew chamber at 20° C.) to permit spores to germinate and infect the leaf. The plants were then transferred to a growth room at 22° C. for disease to develop. Fungicide formulation, application and disease assessment on the sprayed leaves followed the procedures as described in the Example A.

Erysiphe cichoracearum = experiment: Powdery Mildew of Cucumber fungicidal activity (ERYSCI); conditions: Golovinomyces cichoracearum, 24 h, 1 Day Protectant, read-out: Disease Control ERYSCI 1DP
Description: Technical grades of materials were dissolved in acetone, which were then mixed with nine volumes of water containing 110 ppm Triton X-100. The fungicide solutions were applied onto wheat seedlings using an automated booth sprayer to run-off. All sprayed plants were allowed to air dry prior to further handling. All fungicides were evaluated using the aforementioned method for their activity vs. all target diseases. Wheat leaf blotch and brown rust activity were also evaluated using track spray applications, in which case the fungicides were formulated as EC formulations, containing 0.1% Trycol 5941 in the spray solutions. Wheat plants (variety Yuma) were grown from seed in a greenhouse in 50% mineral soil/50% soil-less Metro mix until the first leaf was fully emerged, with 7-10 seedlings per pot. These plants were inoculated with an aqueous spore suspension of Septoria tritici either prior to or after fungicide treatments. After inoculation the plants were kept in 100% relative humidity (one day in a dark dew chamber followed by two to three days in a lighted dew chamber at 20° C.) to permit spores to germinate and infect the leaf. The plants were then transferred to a greenhouse set at 20° C. for disease to develop. When disease symptoms were fully expressed on the 1st leaves of untreated plants, infection levels were assessed on a scale of 0 to 100 percent disease severity. Percent disease control was calculated using the ratio of disease severity on treated plants relative to untreated plants. Evaluation of Fungicidal Activity: Powdery Mildew of Cucumber (Erysiphe cichoracearum; Bayer Code […]) Cucumber seedlings (variety Bush Pickle) were grown in soil-less Metro mix, with one plant per pot, and used in the test when 12 to 14 days old. Plants were inoculated with a spore suspension 24 hr following fungicide treatments. After inoculation the plants remained in the greenhouse set at 20° C. until disease was fully expressed. Fungicide formulation, application and disease assessment on the sprayed leaves followed the procedures as described in the Example A.

Cercospora beticola = experiment: Leaf Spot of Sugar Beets fungicidal activity (CERCBE); conditions: 24 h, 1 Day Protectant, sugar beet, read-out: Disease Control CERCBE 1DP
Description: Technical grades of materials were dissolved in acetone, which were then mixed with nine volumes of water containing 110 ppm Triton X-100. The fungicide solutions were applied onto wheat seedlings using an automated booth sprayer to run-off. All sprayed plants were allowed to air dry prior to further handling. All fungicides were evaluated using the aforementioned method for their activity vs. all target diseases. Wheat leaf blotch and brown rust activity were also evaluated using track spray applications, in which case the fungicides were formulated as EC formulations, containing 0.1% Trycol 5941 in the spray solutions. Wheat plants (variety Yuma) were grown from seed in a greenhouse in 50% mineral soil/50% soil-less Metro mix until the first leaf was fully emerged, with 7-10 seedlings per pot. These plants were inoculated with an aqueous spore suspension of Septoria tritici either prior to or after fungicide treatments. After inoculation the plants were kept in 100% relative humidity (one day in a dark dew chamber followed by two to three days in a lighted dew chamber at 20° C.) to permit spores to germinate and infect the leaf. The plants were then transferred to a greenhouse set at 20° C. for disease to develop. When disease symptoms were fully expressed on the 1st leaves of untreated plants, infection levels were assessed on a scale of 0 to 100 percent disease severity. Percent disease control was calculated using the ratio of disease severity on treated plants relative to untreated plants. Evaluation of Fungicidal Activity: Leaf Spot of Sugar Beets (Cercospora beticola; Bayer Code CERCBE) Sugar beet plants (variety HH88) were grown in soil-less Metro mix and trimmed regularly to maintain a uniform plant size prior to test. Plants were inoculated with a spore suspension 24 hr after fungicide treatments. Inoculated plants were kept in a dew chamber at 22° C. for 48 hr then incubated in a greenhouse set at 24° C. under a clear plastic hood with bottom ventilation until disease symptoms were fully expressed. Fungicide formulation, application and disease assessment on the sprayed leaves followed the procedures as described in the Example A.

Row | SMILES | pest or weed control at 100 ppm (Alternaria solani) [%] | pest or weed control at 100 ppm (Erysiphe cichoracearum) [%] | pest or weed control at 100 ppm (Cercospora beticola) [%]
1 | COc1ccnc(C(=O)N[C@H]2COC[C@H](Cc3ccc(Cl)cc3Cl)[C@@H](OC(=O)C(C)C)[C@H](C)OC2=O)c1OCOC(C)=O [Compound F110] | 80 to 100 | 0 to 80 | 80 to 100
2 | COc1ccnc(C(=O)N[C@H]2COC[C@H](CC3CCCC3)[C@@H](OC(=O)C(C)C)[C@H](C)OC2=O)c1OCOC(C)=O [Compound F114] | 80 to 100 | 80 to 100 | 80 to 100
3 | COc1ccnc(C(=O)N[C@H]2COC[C@H](CC(F)(F)F)[C@@H](OC3CCCC3)[C@H](C)OC2=O)c1OCOC(C)=O [Compound F105] | 0 to 80 | 0 to 80 | 80 to 100
4 | COc1ccnc(C(=O)N[C@H]2COC[C@H](CCC(C)C)[C@@H](OCCCC(F)(F)F)[C@H](C)OC2=O)c1OCOC(C)=O [Compound F107] | 80 to 100 | 80 to 100 | 80 to 100
5 | CCCCCO[C@@H]1[C@@H](Cc2ccc(Cl)cc2Cl)COC[C@H](NC(=O)c2nccc(OC)c2OCOC(=O)COCC)C(=O)O[C@H]1C [Compound F122] | 80 to 100 | 0 to 80 | 80 to 100
6 | COc1ccnc(C(=O)N[C@H]2COC[C@H](Cc3ccc(C)cc3)[C@@H](OCC(C)C)[C@H](C)OC2=O)c1OC(C)=O [Compound F80] | 80 to 100 | 80 to 100 | 80 to 100
7 | COc1ccnc(C(=O)N[C@H]2COC[C@H](Cc3ccc(F)cc3)[C@@H](OCC(C)C)[C@H](C)OC2=O)c1OCOC(C)=O [Compound F96] | 80 to 100 | 80 to 100 | 80 to 100
8 | COc1ccnc(C(=O)N[C@H]2COC[C@H](Cc3ccc(Cl)cc3Cl)[C@@H](OC(=O)C(C)C)[C@H](C)OC2=O)c1OC(C)=O [Compound F73] | 0 to 80 | 0 to 80 | 80 to 100
9 | COc1ccnc(C(=O)N[C@H]2COC[C@H](CCC(C)C)[C@@H](OC(=O)C3CC3)[C@H](C)OC2=O)c1OCOC(C)=O [Compound F108] | 80 to 100 | 80 to 100 | 80 to 100
10 | COc1ccnc(C(=O)N[C@H]2COC[C@H](Cc3ccc(C)cc3)[C@@H](OCC(C)C)[C@H](C)OC2=O)c1OCOC(C)=O [Compound F117] | 80 to 100 | 80 to 100 | 80 to 100
11 | COc1ccnc(C(=O)N[C@H]2COC[C@H](Cc3cccc4ccccc34)[C@@H](OC(=O)C(C)C)[C@H](C)OC2=O)c1OCOC(C)=O [Compound F83, (3S,6S,7R,8S)-3-(3-(acetoxymethoxy)-4-methoxypicolin-amido)-6-methyl-8-(naphthalen-1-ylmethyl)-4-oxo-1,5-dioxonan-7-yl isobutyrate] |  |  | 80 to 100
12 | COc1ccnc(C(=O)N[C@H]2COC[C@H](CCc3ccccc3)[C@@H](OCC(C)C)[C@H](C)OC2=O)c1OCOC(C)=O [Compound F82] | 0 to 80 | 0 to 80 | 0 to 80
13 | COc1ccnc(C(=O)N[C@H]2COC[C@H](Cc3ccc(F)cc3)[C@@H](OCC(C)C)[C@H](C)OC2=O)c1OC(C)=O [Compound F60] |  | 80 to 100 | 80 to 100
14 | CCCCCO[C@@H]1[C@@H](Cc2ccc(Cl)cc2Cl)COC[C@H](NC(=O)c2nccc(OC)c2OC(=O)CCOC)C(=O)O[C@H]1C [Compound F123] | 80 to 100 | 80 to 100 | 80 to 100
